According to patent US20250270200A1, “CTPS1 INHIBITORS AND USES THEREOF” (Nimbus Clotho, Inc., priority 2022, published 2025):

Biological target: T1, human CTPS1 (Homo sapiens, UniProt P17812)
T1 sequence (P17812 1-591): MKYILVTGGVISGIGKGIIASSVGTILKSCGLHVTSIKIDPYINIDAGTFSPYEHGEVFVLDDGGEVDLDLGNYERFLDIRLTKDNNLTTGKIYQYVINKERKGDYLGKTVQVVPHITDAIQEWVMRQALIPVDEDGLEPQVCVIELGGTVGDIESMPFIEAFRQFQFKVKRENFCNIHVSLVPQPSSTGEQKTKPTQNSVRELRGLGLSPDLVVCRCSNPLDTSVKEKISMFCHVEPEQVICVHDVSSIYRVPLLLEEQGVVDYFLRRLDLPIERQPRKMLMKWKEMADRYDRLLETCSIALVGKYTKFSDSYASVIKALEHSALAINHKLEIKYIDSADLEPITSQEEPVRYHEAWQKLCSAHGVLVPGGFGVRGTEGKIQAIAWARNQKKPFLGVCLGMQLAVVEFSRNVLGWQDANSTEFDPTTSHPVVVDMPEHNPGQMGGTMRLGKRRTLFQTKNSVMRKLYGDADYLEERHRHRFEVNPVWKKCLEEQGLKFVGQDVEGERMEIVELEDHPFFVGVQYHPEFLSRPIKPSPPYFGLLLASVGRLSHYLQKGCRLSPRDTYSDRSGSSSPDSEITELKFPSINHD
Test: ADP-Glo assay, human CTPS1 enzyme inhibition
Type: biochemical
Conditions: wild-type human CTPS1, 25 nM enzyme; ADP-Glo; read-out: ADP-Glo_WT_hCTPS1—25 nM_IC50 (IC50)
Summary of the method: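 Full-length tagged human CTPS1 (25 nM) pre-incubated 10 min at 25° C with compound, then 10 min with ATP (120 μM) and UTP (160 μM); reaction started with L-glutamine (100 μM) and GTP (60 μM), 1% DMSO, in HEPES pH 7.4, 10 mM Mg2+, 5 mM KCl, 2 mM DTT. Run within linear phase at 25° C; ADP measured by ADP-Glo luminescence.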

SMILES | IC50
COC[C@@H](NC(=O)c1ccc(-c2cnn3ccc(Cl)cc23)cc1F)c1cc(NS(=O)(=O)C2CC2)ccn1 [I-285, (S)-4-(5-chloropyrazolo[1,5-a]pyridin-3-yl)-N-(1-(4-(cyclopropanesulfonamido)pyridin-2-yl)-2-methoxyethyl)-2-fluorobenzamide] | 50 to 100 nM
CCOc1cncc(-c2cnc(C(=O)N[C@H](c3cccc(NS(=O)(=O)C(F)F)c3)[C@@H](C)O)s2)n1 [I-286, N-((1R,2R)-1-(3-((difluoromethyl)sulfonamido)phenyl)-2-hydroxypropyl)-5-(6-ethoxypyrazin-2-yl)thiazole-2-carboxamide] | 5 to 25 nM
CCOc1cncc(-c2cnc(C(=O)N[C@@H](c3cccc(NS(=O)(=O)C(F)F)c3)[C@@H](C)O)s2)n1 [I-287, N-((1S,2R)-1-(3-((difluoromethyl)sulfonamido)phenyl)-2-hydroxypropyl)-5-(6-ethoxypyrazin-2-yl)thiazole-2-carboxamide] | 5 to 25 nM
CCOc1cncc(-c2cnc(C(=O)N[C@@H](c3cccc(NS(=O)(=O)C(F)F)c3)[C@H](C)O)s2)n1 [I-288, N-((1S,2S)-1-(3-((difluoromethyl)sulfonamido)phenyl)-2-hydroxypropyl)-5-(6-ethoxypyrazin-2-yl)thiazole-2-carboxamide] | 5 to 25 nM

Results, then the compound that gave them:

IC50 | SMILES
5 to 25 nM | CCOc1cncc(-c2cnc(C(=O)N[C@H](c3cccc(NS(=O)(=O)C(F)F)c3)[C@H](C)O)s2)n1 [I-289, N-((1R,2S)-1-(3-((difluoromethyl)sulfonamido)phenyl)-2-hydroxypropyl)-5-(6-ethoxypyrazin-2-yl)thiazole-2-carboxamide]
5 to 25 nM | CCOc1cncc(-c2cnc(C(=O)N[C@@H](c3cccc(NS(=O)(=O)C(F)F)c3)C(C)(C)O)s2)n1 [I-290, (S)-N-(1-(3-((difluoromethyl)sulfonamido)phenyl)-2-hydroxy-2-methylpropyl)-5-(6-ethoxypyrazin-2-yl)thiazole-2-carboxamide]
5 to 25 nM | CCOc1cncc(-c2cnc(C(=O)N[C@H](c3cccc(NS(=O)(=O)C(F)F)c3)C(C)(C)O)s2)n1 [I-291, (R)-N-(1-(3-((difluoromethyl)sulfonamido)phenyl)-2-hydroxy-2-methylpropyl)-5-(6-ethoxypyrazin-2-yl)thiazole-2-carboxamide]
5 to 25 nM | CCOc1cncc(-c2cnc(C(=O)N[C@H](COC)c3cccc(NS(=O)(=O)C(F)F)c3)s2)n1 [I-292, (S)-N-(1-(3-((difluoromethyl)sulfonamido)phenyl)-2-methoxyethyl)-5-(6-ethoxypyrazin-2-yl)thiazole-2-carboxamide]
5 to 25 nM | CCOc1cncc(-c2cnc(C(=O)N[C@@H](COC)c3cccc(NS(=O)(=O)C(F)F)c3)s2)n1 [I-293, (R)-N-(1-(3-((difluoromethyl)sulfonamido)phenyl)-2-methoxyethyl)-5-(6-ethoxypyrazin-2-yl)thiazole-2-carboxamide]
